This passage reports IC50 results from patent US20250115572A1, “SPIROCYCLIC PIPERIDINYL DERIVATIVES AS COMPLEMENT FACTOR B INHIBITORS AND USES THEREOF” (Novartis AG, priority 2022, published 2025).

Recombinant human factor B, sequence (P00751 26-764): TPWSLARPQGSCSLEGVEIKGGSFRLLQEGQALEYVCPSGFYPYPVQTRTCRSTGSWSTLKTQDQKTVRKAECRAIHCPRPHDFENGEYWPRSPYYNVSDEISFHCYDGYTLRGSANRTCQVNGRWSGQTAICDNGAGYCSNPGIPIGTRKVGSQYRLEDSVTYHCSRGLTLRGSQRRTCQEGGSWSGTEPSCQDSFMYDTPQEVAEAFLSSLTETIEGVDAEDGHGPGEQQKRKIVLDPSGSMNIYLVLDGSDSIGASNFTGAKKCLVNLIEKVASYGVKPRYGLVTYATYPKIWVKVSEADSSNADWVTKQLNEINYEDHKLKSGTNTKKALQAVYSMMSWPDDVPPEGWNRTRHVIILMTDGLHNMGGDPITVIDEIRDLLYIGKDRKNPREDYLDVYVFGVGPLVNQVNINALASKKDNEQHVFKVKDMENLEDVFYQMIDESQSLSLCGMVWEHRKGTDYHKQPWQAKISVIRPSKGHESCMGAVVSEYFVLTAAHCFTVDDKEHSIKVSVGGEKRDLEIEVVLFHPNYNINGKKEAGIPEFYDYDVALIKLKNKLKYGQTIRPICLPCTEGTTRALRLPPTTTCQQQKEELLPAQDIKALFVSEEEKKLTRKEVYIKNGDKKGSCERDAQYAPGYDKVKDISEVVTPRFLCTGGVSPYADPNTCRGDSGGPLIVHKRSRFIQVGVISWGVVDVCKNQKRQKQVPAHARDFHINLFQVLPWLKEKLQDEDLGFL

In the assay the target is Recombinant human factor B (Homo sapiens (Human), UniProt P00751). Kind of assay: Human Complement Factor B TR-FRET Assay. The assay is classed as binding. As to conditions: displacement of labeled factor B ligand; * = assay behavior at and above the stated concentration prevented IC50 determination; read-out: hFactor-B TR-FRET Qualified IC50. The protocol:
The time-gated decrease in fluorescence intensity related to the competition between labeled and unlabeled factor B ligands was recorded at both 620 nm and 665 nm, 70 μs after excitation at 337 nm using a microplate spectrofluorimeter.
Regarding `Cc1cc(C2CC2)c(CN2CCC3(C[C@@H]2c2ccc(C4(O)COC4)cc2)CC(F)(F)C3)c2cc[nH]c12` (single isomer, unassigned) [Ex-26], the IC50 was over 400 nM.
Regarding `COc1cc(C)c2[nH]ccc2c1CN1CCC2(C[C@H]1c1ccc(C(=O)O)cc1)CC(C)(F)C2` (single isomer, unassigned) [Ex-3], the IC50 amounted to 40.7 nM.
`COc1cc(C)c2[nH]ccc2c1CN1CCC2(CC1c1ccccc1)CC(F)(F)C2` (racemic) [Ex-35]: the IC50 worked out at 17.3 nM.
As for `COc1cc(C)c2[nH]ccc2c1CN1CCC2(CC(F)C2)C[C@@H]1c1ccc(C(=O)O)cc1` (single isomer, unassigned) [Ex-10], the figure is 242 nM; as for `COc1cc(C)c2[nH]ccc2c1CN1CCC2(C[C@H]1c1cnn(C)c1)CC(F)(F)C2` (single isomer, unassigned) [Ex-39], 10.3 nM.
With `COc1cc(C)c2[nH]ccc2c1CN1CCC2(CC1c1ccc(C(F)F)cc1)CC(F)(F)C2` (racemic) [Ex-52] the figure was 172 nM.
In the case of `Cc1cc(C2CC2)c(CN2CCC3(CC2c2ccc(-c4nnn[nH]4)cc2)CC(F)(F)C3)c2cc[nH]c12` (racemic) [Ex-57, 6-(4-(1H-tetrazol-5-yl)phenyl)-7-((5-cyclopropyl-7-methyl-1H-indol-4-yl)methyl)-2,2-difluoro-7-azaspiro[3.5]nonane], the IC50 came to 5 nM.
With `COc1cc(C)c2[nH]ccc2c1CN1CCC2(CC1c1ccc(C(=O)O)cc1)CC(C)(O)C2` (racemic) [Ex-16], the IC50 turned out to be 434 nM.
On to `Cc1cc(C2CC2)c(CN2CCC3(C[C@H]2c2ccc(C(=O)O)nc2)CC(F)(F)C3)c2cc[nH]c12` [Ex-66], for which the IC50 is 2.1 nM.
As for `COc1cc(C)c2[nH]ccc2c1CN1CCC2(C[C@H]1c1ccc(C(=O)O)cc1)CC(C)(O)C2` (single isomer, unassigned) [Ex-15], the figure is 105 nM.
As for `Cc1cc(C2CC2)c(CN2CCC3(C[C@H]2c2ccc(C4(O)COC4)cc2)CC(F)(F)C3)c2cc[nH]c12` (single isomer, unassigned) [Ex-25], the figure is 4 nM.
As for `Cc1cc(C2CC2)c(CN2CCC3(C[C@H]2c2ccc(-c4nnn[nH]4)cc2)CC(F)(F)C3)c2cc[nH]c12` (single isomer, unassigned) [Ex-33], the figure is 1.6 nM.
For the compound `COc1cc(C)c2[nH]ccc2c1CN1CCC2(COC2)C[C@@H]1c1ccc(C(=O)O)cc1` [Ex-12], the IC50 was 5300 nM.
As for `COCCn1cc([C@@H]2CC3(CCN2Cc2c(OC)cc(C)c4[nH]ccc24)CC(F)(F)C3)cn1` (single isomer, unassigned) [Ex-44], the figure is 9.9 nM.
For the compound `Cc1cc(C2CC2)c(CN2CCC3(C[C@H]2c2ccc(C(C)(C)O)cc2)CC(F)(F)C3)c2cc[nH]c12` (single isomer, unassigned) [Ex-27], the half-maximal inhibitory concentration (IC50) was found to be 6.9 nM.
As for `COc1cc(C)c2[nH]ccc2c1CN1CCC2(C[C@@H]1c1ccc(-c3nnn[nH]3)nc1)CC(F)(F)C2` (single isomer, unassigned) [Ex-60], the figure is 152 nM.
As for `COc1cc(C)c2[nH]ccc2c1CN1CCC2(C[C@H]1c1ccc(-c3nnn[nH]3)nc1)CC(F)(F)C2` (single isomer, unassigned) [Ex-59], the figure is 2.1 nM; as for `Cc1cc(C2CC2)c(CN2CCC3(CC2c2ccc(-c4nnn[nH]4)nc2)CC(F)(F)C3)c2cc[nH]c12` (racemic) [Ex-61, (SR)-6-(6-(1H-tetrazol-5-yl)pyridin-3-yl)-7-((5-cyclopropyl-7-methyl-1H-indol-4-yl)methyl)-2,2-difluoro-7-azaspiro[3.5]nonane], 3.8 nM; as for `COc1cc(C)c2[nH]ccc2c1CN1CCC2(C[C@H]1c1cnn(CC(=O)O)c1)CC(F)(F)C2` [Ex-45], 9.4 nM.
For the compound `Cc1cc(C2CC2)c(CN2CCC3(CC2c2ccc(-c4ccn[nH]4)cc2)CC(F)(F)C3)c2cc[nH]c12` (racemic) [Ex-51], the IC50 was determined as 4.2 nM.
With `Cc1cc(C2CC2)c(CN2CCC3(C[C@@H]2c2ccc(-c4ccn[nH]4)cc2)CC(F)(F)C3)c2cc[nH]c12` (single isomer, unassigned) [Ex-30] the figure was over 100 nM; with `COc1cc(C)c2[nH]ccc2c1CN1CCC2(CCC(F)(F)C2)C[C@H]1c1ccc(C(=O)O)cc1` (single isomer, unassigned) [Ex-20], 7.6 nM.
As to `COc1cc(C)c2[nH]ccc2c1CN1CCC2(C[C@@H]1c1ccc(C(=O)O)nc1)CC(F)(F)C2` [Ex-65], the IC50 stood at 235 nM.
With `COc1cc(C)c2[nH]ccc2c1CN1CCC2(CCC(F)(F)C2)C[C@H]1c1ccc(C(=O)O)cc1` (single isomer, unassigned) [Ex-18, 4-((5S,7S)-2,2-difluoro-8-((5-methoxy-7-methyl-1H-indol-4-yl)methyl)-8-azaspiro[4.5]decan-7-yl)benzoic acid or 4-((5R,7S)-2,2-difluoro-8-((5-methoxy-7-methyl-1H-indol-4-yl)methyl)-8-azaspiro[4.5]decan-7-yl)benzoic acid], the IC50 came to 3.4 nM.
On to `COc1cc(C)c2[nH]ccc2c1CN1CCC2(C[C@H]1c1ccc(C(=O)O)cc1)CC(F)(F)C2` [Ex-5, (S)-4-(2,2-difluoro-7-((5-methoxy-7-methyl-1H-indol-4-yl)methyl)-7-azaspiro[3.5]nonan-6-yl)benzoic acid], for which the IC50 amounted to 0.5 nM.
Regarding `Cc1cc(C2CC2)c(CN2CCC3(C[C@H]2c2ccc(-c4ccn[nH]4)cc2)CC(F)(F)C3)c2cc[nH]c12` (single isomer, unassigned) [Ex-29], the IC50 was 5.1 nM.
As to `COc1cc(C)c2[nH]ccc2c1CN1CCC2(CC1c1ccc(C(=O)O)cc1)CC(C)(O)C2` (racemic) [Ex-13], the IC50 was 29.4 nM.
As for `Cc1cc(C2CC2)c(CN2CCC3(C[C@@H]2c2ccc(C(C)(C)O)cc2)CC(F)(F)C3)c2cc[nH]c12` (single isomer, unassigned) [Ex-28], the figure is over 400 nM; as for `Cc1cc(C2CC2)c(CN2CCC3(C[C@@H]2c2ccc(-c4nnn[nH]4)cc2)CC(F)(F)C3)c2cc[nH]c12` (single isomer, unassigned) [Ex-34], 124 nM.
Consider `COc1cc(C)c2[nH]ccc2c1CN1CCC2(CC1c1ccc(-c3nnn[nH]3)cc1)CC(F)(F)C2` (racemic) [Ex-54, (SR)-6-(4-(1H-tetrazol-5-yl)phenyl)-2,2-difluoro-7-((5-methoxy-7-methyl-1H-indol-4-yl)methyl)-7-azaspiro[3.5]nonane], for which the concentration for half-maximal inhibition (IC50) came to 2.2 nM.
With `Cc1cc(C)c2[nH]ccc2c1CN1CCC2(C[C@@H]1c1ccc(C(=O)O)nc1)CC(F)(F)C2` [Ex-69], the IC50 was determined as 1230 nM.
On to `COc1cc(C)c2[nH]ccc2c1CN1CCC2(C[C@@H]1c1cnn(C)c1)CC(F)(F)C2` (single isomer, unassigned) [Ex-40], for which the IC50 worked out at 864 nM.
With `Cc1cc(C2CC2)c(CN2CCC3(CC2c2ccc(-n4cccn4)cc2)CC(F)(F)C3)c2cc[nH]c12` (racemic) [Ex-50] the figure was 7 nM; with `COc1cc(C)c2[nH]ccc2c1CN1CCC2(C[C@@H]1c1ccc(C(=O)O)cc1)CC(F)(F)C2` [Ex-6, (R)-4-(2,2-difluoro-7-((5-methoxy-7-methyl-1H-indol-4-yl)methyl)-7-azaspiro[3.5]nonan-6-yl)benzoic acid], 714 nM; with `Cc1cc(C2CC2)c(CN2CCC3(C[C@H]2c2ccc(-n4cccn4)cc2)CC(F)(F)C3)c2cc[nH]c12` (single isomer, unassigned) [Ex-31], 3.8 nM.
